Data from patent US7087756B2, “Isoxazolopyridinones” (Novartis AG, priority 2001, dated 2006).

Biological target: Nurr1 receptor (Homo sapiens, UniProt P43354)
Experiment: Transactivation of a Nurr1 responsive reporter gene in a midbrain dopaminergic cell line
Type: cell-based
Conditions: read-out: EC50 of increase of reporter gene activity
Excerpt: The activity of the agents of the invention at the Nurr1 receptor can be determined in vitro in cellular assays:
Induction of the biological activity of the Nurr1 receptor by the agents of the invention can be measured by the transactivation of a Nurr1 responsive reporter gene in a midbrain dopaminergic cell line. The assay is based on the transcription promoting effect of Nurr1. The reporter gene can be activated both by Nurr1 monomers and Nurr1/RXR heterodimers. RXR is a frequent heterodimerisation partner of nuclear receptors and it has been shown that Nurr1 can form heterodimers with RXR (Zetterström RH et al. Mol. Endocrinol. 1996; 10:1656–1666).

Sequence of Nurr1 receptor (P43354 whole entry): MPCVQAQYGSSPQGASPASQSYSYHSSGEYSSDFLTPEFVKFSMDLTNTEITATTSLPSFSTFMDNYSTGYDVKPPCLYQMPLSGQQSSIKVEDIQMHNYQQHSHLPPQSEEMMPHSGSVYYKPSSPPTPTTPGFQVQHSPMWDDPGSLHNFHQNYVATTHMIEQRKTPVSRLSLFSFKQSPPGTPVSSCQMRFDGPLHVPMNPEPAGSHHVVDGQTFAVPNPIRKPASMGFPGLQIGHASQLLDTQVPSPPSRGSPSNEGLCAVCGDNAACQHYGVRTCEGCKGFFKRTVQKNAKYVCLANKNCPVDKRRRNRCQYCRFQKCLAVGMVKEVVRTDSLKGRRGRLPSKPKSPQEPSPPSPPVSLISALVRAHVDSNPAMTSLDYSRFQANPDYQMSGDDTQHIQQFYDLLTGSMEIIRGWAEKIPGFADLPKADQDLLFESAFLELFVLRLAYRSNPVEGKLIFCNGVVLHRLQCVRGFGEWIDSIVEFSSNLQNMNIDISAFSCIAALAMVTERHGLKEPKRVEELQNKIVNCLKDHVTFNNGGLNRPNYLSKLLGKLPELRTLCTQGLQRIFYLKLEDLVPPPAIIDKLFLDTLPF

EC50 [µM] | Structure (SMILES)
0.04 | COCCOCc1ccc(-c2cc3onc(-c4ccccc4)c3c(=O)n2C)cc1 [Example 7, 6-[4-(2-Methoxy-ethoxymethyl)-phenyl]-5-methyl-3-phenyl-5H-isoxazolo[4,5-c]pyridin-4-one]
0.07 | CN(C)Cc1ccc(-c2cc3onc(-c4ccccc4)c3c(=O)[nH]2)cc1 [Example 11, 6-(4-Dimethylaminomethyl-phenyl)-3-phenyl-5H-isoxazolo[4,5-c]pyridin-4-one]
